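Briefly, cells in 96-well plates were exposed to five compound concentrations for 48 h, and endpoints were estimated by linear interpolation. Here, GI50 denotes the concentration required for 50% inhibition of growth.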 Active and inactive are the calls of the source. Rule as the data show it: active = GI50 up to about 1.1 µM and inactive = higher. Where a SMILES comes first, the peptide text is derived from it. The star is where a group is joined. Boc = CC(C)(C)OC(=O)*
Experiments:
Experiment in all cases: inhibition of tumour cell growth, NCI panel, 48 h
[1] = system: CCRF-CEM
[2] = system: SK-MEL-28
[3] = system: MOLT-4
[4] = system: SR
[5] = system: SF-539
[6] = system: U-251
[7] = system: SK-MEL-5
[8] = system: HT-29
[9] = system: BT-549
[10] = system: SF-295
[11] = system: KM12
[12] = system: 786-0
[13] = system: A498
[14] = system: A549
[15] = system: UACC-62
[16] = system: SNB-75
[17] = system: MCF7
[18] = system: SK-OV-3
[19] = system: Malme-3M

Compound	GI50 [1]	GI50 [2]	GI50 [3]	GI50 [4]	GI50 [5]	GI50 [6]	GI50 [7]	GI50 [8]	GI50 [9]	GI50 [10]	GI50 [11]	GI50 [12]	GI50 [13]	GI50 [14]	GI50 [15]	GI50 [16]	GI50 [17]	GI50 [18]	GI50 [19]
CCOC(=O)c1cn(-c2ccc(Cl)cc2)c(=O)n2c1nc1ccccc12	> 100 µM (inactive)	> 100 µM (inactive)	> 100 µM (inactive)	> 100 µM (inactive)	> 100 µM (inactive)	> 100 µM (inactive)	> 100 µM (inactive)	88.3 µM (inactive)	> 100 µM (inactive)	> 100 µM (inactive)	> 100 µM (inactive)	> 100 µM (inactive)	> 100 µM (inactive)	> 100 µM (inactive)	> 100 µM (inactive)	> 100 µM (inactive)	> 100 µM (inactive)	–	–
CC1=C(C)C(=O)OC(C(C)(O)C2(O)CCC3(O)C4CC(Cl)C5(O)C(O)C=CC(=O)C5(C)C4CCC32C)C1 (stereo unspecified)	14.1 µM (inactive)	49 µM (inactive)	10.1 µM (inactive)	8.51 µM (inactive)	28.2 µM (inactive)	37.5 µM (inactive)	–	15.9 µM (inactive)	46.3 µM (inactive)	30.3 µM (inactive)	25.6 µM (inactive)	32.3 µM (inactive)	52.6 µM (inactive)	69.3 µM (inactive)	9.1 µM (inactive)	4.25 µM (inactive)	8.85 µM (inactive)	41.6 µM (inactive)	> 100 µM (inactive)
COc1ccc(/C=C2\c3cc(OC)c(OC)cc3CCN2C(=O)c2ccccc2)cc1OC	32.3 µM (inactive)	46.7 µM (inactive)	25.2 µM (inactive)	30.8 µM (inactive)	46.7 µM (inactive)	82.6 µM (inactive)	18.5 µM (inactive)	30.7 µM (inactive)	27.7 µM (inactive)	61.4 µM (inactive)	49.9 µM (inactive)	34.4 µM (inactive)	35.4 µM (inactive)	37.8 µM (inactive)	36.7 µM (inactive)	32 µM (inactive)	43.9 µM (inactive)	–	22.5 µM (inactive)
CCCCCCN(CCCCCC)CCC(=O)c1ccc2cc(Br)c3ccccc3c2c1	–	77.1 µM (inactive)	–	0.318 µM (active)	21.3 µM (inactive)	36.2 µM (inactive)	26.1 µM (inactive)	66.1 µM (inactive)	20.3 µM (inactive)	59 µM (inactive)	11.5 µM (inactive)	24.9 µM (inactive)	36.3 µM (inactive)	> 100 µM (inactive)	25.8 µM (inactive)	–	20.2 µM (inactive)	39.1 µM (inactive)	89.1 µM (inactive)
COC(c1ccc(C(C)(C)C)cc1)(c1ccc(C(C)(C)C)cc1)c1ccc(C(C)(C)C)cc1	> 100 µM (inactive)	> 100 µM (inactive)	> 100 µM (inactive)	> 100 µM (inactive)	> 100 µM (inactive)	> 100 µM (inactive)	> 100 µM (inactive)	> 100 µM (inactive)	> 100 µM (inactive)	> 100 µM (inactive)	> 100 µM (inactive)	> 100 µM (inactive)	> 100 µM (inactive)	> 100 µM (inactive)	> 100 µM (inactive)	> 100 µM (inactive)	> 100 µM (inactive)	–	> 100 µM (inactive)
O=C1CSC2=NCC3(NN12)c1ccccc1-c1ccccc13	> 10 µM (inactive)	> 10 µM (inactive)	> 10 µM (inactive)	> 10 µM (inactive)	> 10 µM (inactive)	–	> 10 µM (inactive)	> 10 µM (inactive)	> 10 µM (inactive)	> 10 µM (inactive)	> 10 µM (inactive)	> 10 µM (inactive)	–	> 10 µM (inactive)	> 10 µM (inactive)	> 10 µM (inactive)	> 10 µM (inactive)	> 10 µM (inactive)	> 10 µM (inactive)
CC(C)(C)OC(=O)NCC(=O)NCC(=O)NCC(=O)NCC(=O)O (Boc-GGGG-OH)	> 100 µM (inactive)	> 100 µM (inactive)	> 100 µM (inactive)	> 100 µM (inactive)	> 100 µM (inactive)	> 100 µM (inactive)	> 100 µM (inactive)	> 100 µM (inactive)	> 100 µM (inactive)	> 100 µM (inactive)	> 100 µM (inactive)	> 100 µM (inactive)	> 100 µM (inactive)	> 100 µM (inactive)	> 100 µM (inactive)	–	> 100 µM (inactive)	> 100 µM (inactive)	> 100 µM (inactive)
O=C(NCCc1ccccc1)c1c(O)nc2ccccc2c1O	> 100 µM (inactive)	> 100 µM (inactive)	> 100 µM (inactive)	> 100 µM (inactive)	> 100 µM (inactive)	> 100 µM (inactive)	> 100 µM (inactive)	> 100 µM (inactive)	> 100 µM (inactive)	> 100 µM (inactive)	> 100 µM (inactive)	> 100 µM (inactive)	> 100 µM (inactive)	> 100 µM (inactive)	–	> 100 µM (inactive)	> 100 µM (inactive)	–	> 100 µM (inactive)
O=C(CCCl)NN=C1NCCCCN1	> 100 µM (inactive)	> 100 µM (inactive)	> 100 µM (inactive)	> 100 µM (inactive)	> 100 µM (inactive)	> 100 µM (inactive)	> 100 µM (inactive)	> 100 µM (inactive)	> 100 µM (inactive)	> 100 µM (inactive)	> 100 µM (inactive)	> 100 µM (inactive)	–	> 100 µM (inactive)	> 100 µM (inactive)	> 100 µM (inactive)	> 100 µM (inactive)	> 100 µM (inactive)	> 100 µM (inactive)
COc1cc(/C=C2\CC3C4CC=C5C[C@@H](O)CC[C@]5(C)C4CC[C@]3(C)\C2=N\O)cc(OC)c1OC (stereo partly specified)	6.44 µM (inactive)	14.2 µM (inactive)	29.2 µM (inactive)	–	6.25 µM (inactive)	6.28 µM (inactive)	4.4 µM (inactive)	5.51 µM (inactive)	7 µM (inactive)	3.02 µM (inactive)	2.54 µM (inactive)	4.66 µM (inactive)	6.93 µM (inactive)	4.65 µM (inactive)	9.06 µM (inactive)	9.2 µM (inactive)	3.21 µM (inactive)	23.7 µM (inactive)	9.35 µM (inactive)
COc1cc(CC2CCc3nc(N)nc(N)c3C2)cc(OC)c1OC (stereo unspecified)	–	> 36.5 µM (inactive)	1.01 µM (active)	0.236 µM (active)	0.966 µM (active)	> 35.2 µM (inactive)	0.0834 µM (active)	> 34.8 µM (inactive)	9.55 µM (inactive)	0.21 µM (active)	1.18 µM (inactive)	0.0536 µM (active)	20.7 µM (inactive)	0.0927 µM (active)	0.145 µM (active)	1.55 µM (inactive)	0.527 µM (active)	27.6 µM (inactive)	0.851 µM (active)
COc1ccc(-c2cc(-c3ccccc3)[nH]c(=S)c2C#N)cc1	17.3 µM (inactive)	20 µM (inactive)	17.4 µM (inactive)	32.6 µM (inactive)	–	25.8 µM (inactive)	16 µM (inactive)	36.1 µM (inactive)	39.6 µM (inactive)	27.4 µM (inactive)	45.4 µM (inactive)	27.2 µM (inactive)	15.3 µM (inactive)	18.8 µM (inactive)	19 µM (inactive)	31 µM (inactive)	30.7 µM (inactive)	30.8 µM (inactive)	32.4 µM (inactive)
CN(C)/C=C/c1c2c(nc3ccccc13)C(=O)c1ccccc1C2=O	0.78 µM (active)	0.222 µM (active)	1.03 µM (active)	0.449 µM (active)	1.92 µM (inactive)	0.991 µM (active)	0.175 µM (active)	1.54 µM (inactive)	1.77 µM (inactive)	0.875 µM (active)	1.34 µM (inactive)	1.92 µM (inactive)	3.91 µM (inactive)	2.33 µM (inactive)	0.25 µM (active)	–	0.7 µM (active)	3.91 µM (inactive)	0.71 µM (active)
Cc1ccc(/N=N\c2c(O)ccc3cc(S(=O)(=O)O)ccc23)cc1	> 100 µM (inactive)	> 100 µM (inactive)	> 100 µM (inactive)	–	> 100 µM (inactive)	> 100 µM (inactive)	> 100 µM (inactive)	> 100 µM (inactive)	> 100 µM (inactive)	> 100 µM (inactive)	> 100 µM (inactive)	> 100 µM (inactive)	> 100 µM (inactive)	> 100 µM (inactive)	> 100 µM (inactive)	> 100 µM (inactive)	> 100 µM (inactive)	> 100 µM (inactive)	> 100 µM (inactive)
C/C(=N\NC(=O)CC#N)C(CN1CCCCC1)C(c1ccccc1)c1c(O)c2ccccc2oc1=O (stereo unspecified)	26.2 µM (inactive)	> 100 µM (inactive)	26.5 µM (inactive)	–	52.6 µM (inactive)	58.6 µM (inactive)	51.2 µM (inactive)	46.8 µM (inactive)	54.2 µM (inactive)	–	39.5 µM (inactive)	78 µM (inactive)	21.7 µM (inactive)	45.7 µM (inactive)	45.4 µM (inactive)	67.5 µM (inactive)	17.3 µM (inactive)	64 µM (inactive)	41 µM (inactive)
COC(=O)C1(C)CCC(c2ccc(C)cc2)=C(CC(=O)O)C1 (stereo unspecified)	–	> 100 µM (inactive)	> 100 µM (inactive)	> 100 µM (inactive)	> 100 µM (inactive)	> 100 µM (inactive)	> 100 µM (inactive)	> 100 µM (inactive)	> 100 µM (inactive)	> 100 µM (inactive)	–	> 100 µM (inactive)	> 100 µM (inactive)	> 100 µM (inactive)	> 100 µM (inactive)	> 100 µM (inactive)	> 100 µM (inactive)	> 100 µM (inactive)	> 100 µM (inactive)

Reference: ChEMBL document CHEMBL1201862, “PubChem BioAssay data set” (2004)
